From patent US20060270655A1, “Combination therapy for treating obesity or maintaining weight loss” (priority 2005, published 2006)

Test: Food intake (12 hour spontaneous food intake, rats on high fat diet)
Type: in vivo
Settings: male Sprague-Dawley rats
Procedure: The following functional assay was used to determine the effect of an intestinal-acting MTPi, a CB-1 antagonist, and the combination of an intestinal-acting MTPi and a CB-1 antagonist on food intake. The doses of the CB-1 antagonist used in the experiments were 10 mg/kg and 30 mg/kg. The doses of the intestinal-acting MTPi used in the experiments were 3 mg/kg and 10 mg/kg. The different dosages for each active were tested alone and in various combinations with each other as compared to a control (vehicle).
Male Sprague-Dawley rats (275-325 grams) were placed on a high fat diet (Research Diets, 45% kcal from fat). Animals were acclimated to an automated food intake assessment system overnight. Food weight data was collected by computer acquisition. Immediately prior to the start of the dark cycle on the first day, animals were given a PO (i.e., orally by mouth) dose of a gMTP inhibitor (Dirlotapide) or vehicle (self-emulsifying drug delivery system (SEDDS) formulation containing 20% Miglyol 812, 30% Triacetin, 20% Tween 80, and 30% Capmul MCM). On the second day, rats (n=5-10/group) were given a PO dose of a CB-1 antagonist (Compound A) or 0.5% methylcellulose 20 minutes prior to a second dose of Dirlotapide or vehicle. Food Intake was monitored until the following day. Data for each treatment group was compared by ANOVA (analysis of variance).

SMILES | 12 hour Spontaneous Food Intake (3 mg/kg Dirlotapide PO alone (two daily doses, plus 0.5% methylcellulose)) [grams] | 12 hour Spontaneous Food Intake (10 mg/kg Dirlotapide PO alone (two daily doses, plus 0.5% methylcellulose)) [grams] | 12 hour Spontaneous Food Intake (10 mg/kg Compound A PO alone (plus SEDDS vehicle)) [grams] | 12 hour Spontaneous Food Intake (30 mg/kg Compound A PO alone (plus SEDDS vehicle)) [grams]
CN(Cc1ccccc1)C(=O)[C@@H](NC(=O)c1cc2cc(NC(=O)c3ccccc3-c3ccc(C(F)(F)F)cc3)ccc2n1C)c1ccccc1 [Dirlotapide, (S)-N-{2-[benzyl(methyl)amino]-2-oxo-1-phenylethyl}-1-methyl-5-[4′-(trifluoromethyl)[1,1′-biphenyl]-2-carboxamido]-1H-indole-2 carboxamide] | 14.6 ± 0.8 | 11.3 ± 0.7 |  | 
CCNC1(C(N)=O)CCN(c2ncnc3c2nc(-c2ccccc2Cl)n3-c2ccc(Cl)cc2)CC1 [Compound A, 1-[9-(4-chloro-phenyl)-8-(2-chloro-phenyl)-9H-purin-6-yl]4-ethylamino-piperidine-4-carboxylic acid amide] |  |  | 16.3 ± 1.0 | 12.6 ± 1.4
